In the NIST ThermoML archive (doi:10.1021/je3009123):

Experiments:
[1] = mn = molality of the nth substance listed, in mol/kg; conditions: 100 kPa, Liquid; for speed of sound: Linear variable-path acoustic interferometer; for mass density: Pycnometric method
[2] = refractive index (Na D-line) (dimensionless); mn = molality of the nth substance listed, in mol/kg; conditions: 100 kPa, Liquid, Standard Abbe refractometry

[Cl][Co][Cl] [cobalt chloride] + O
m1 = 0.1
Conditions | mass density, [1] [kg/m3] | refractive index, [2] | speed of sound, [1] [m/s]
293.15 K | 1014 | 1.3373 | 1502.5
298.15 K | 1013 | 1.3368 | 1512
303.15 K | 1011.84 | 1.3361 | 1524
308.15 K | 1010.16 | 1.3356 | 1533.9
313.15 K | 1007.89 | 1.335 | 1541.7

CC1NC(=O)C(C)NC1=O (stereo not given) [3,6-dimethyl-2,5-piperazinedione] + O
m1 = 0.05
Conditions | mass density, [1] [kg/m3] | refractive index, [2] | speed of sound, [1] [m/s]
293.15 K | 999.9 | 1.3351 | 1499.7
298.15 K | 998.82 | 1.3344 | 1509.5
303.15 K | 997.48 | 1.3337 | 1521.1
308.15 K | 996.18 | 1.3331 | 1527.9
313.15 K | 994.84 | 1.3324 | 1535.9
